{"source": "patent US12201610B2", "about": "“Compositions comprising aticaprant” (Janssen Pharmaceuticals, Inc., priority 2022, dated 2025)", "experiment": "GVS characterization of Form III", "assay_type": "physicochemical", "settings": "at 90% RH"}
{"compound": "Cc1cc(C)cc([C@@H]2CCCN2Cc2ccc(Oc3ccc(C(N)=O)cc3F)cc2)c1", "note": "[Form III]", "values": [{"measurement": "GVS max uptake", "result": 0.4, "unit": "% max uptake at 90% RH"}]}
